This note sets out measurements from patent publication US12589104B2, “Thiosaccharides for use in treating coronavirus infection” (priority 2020, dated 2026).

The target of this assay is SARS-CoV-2 RBD^N501Y binding to ACE2 (Severe acute respiratory syndrome coronavirus 2, UniProt P0DTC2, N501Y).

As for `NCCS` [Cysteamine], the “inhibition of binding of RBD^N501Y to ACE2” value is “potently inhibited”.
